Converted amounts (≈) assume the structure as drawn. The source made the active and inactive calls. No cut-off for these calls is given here.
Columns and labels:
Bacillus cereus [1] = assay: Antimicrobial activity against Bacillus cereus MTCC 619 by agar streak dilution method; assay type: functional
Klebsiella pneumoniae [2] = assay: Antimicrobial activity against Klebsiella pneumoniae MTCC 109 at 100 ug/ml by paper disk diffusion method; assay type: functional, organism-based
Proteus vulgaris [3] = assay: Antimicrobial activity against Proteus vulgaris MTCC 1771 by agar streak dilution method; assay type: functional
Aspergillus niger [4] = assay: Antimicrobial activity against Aspergillus niger MTCC 282 by agar streak dilution method; assay type: functional
Shigella flexneri = assay: Antimicrobial activity against Shigella flexneri MTCC 1457 at 100 ug/ml by paper-disk diffusion method; assay type: functional, organism-based
Escherichia coli [5] = assay: Antimicrobial activity against Escherichia coli MTCC 739 by agar streak dilution method; assay type: functional
Pseudomonas aeruginosa [6] = assay: Antimicrobial activity against Pseudomonas aeruginosa MTCC 741 by agar streak dilution method; assay type: functional
Aspergillus niger [7] = assay: Antimicrobial activity against Aspergillus niger MTCC 282 by paper-disk diffusion method; assay type: functional
Candida albicans [8] = assay: Antimicrobial activity against Candida albicans MTCC 183 by paper-disk diffusion method; assay type: functional
Salmonella typhi [9] = assay: Antimicrobial activity against Salmonella enterica subsp. enterica serovar Typhi MTCC 733 by agar streak dilution method; assay type: functional
Proteus vulgaris [10] = assay: Antimicrobial activity against Proteus vulgaris MTCC 1771 by paper disk diffusion method; assay type: functional
Bacillus cereus [11] = assay: Antimicrobial activity against Bacillus cereus MTCC 619 by paper disk diffusion method; assay type: functional
Aspergillus fumigatus [12] = assay: Antimicrobial activity against Aspergillus fumigatus MTCC 343 by agar streak dilution method; assay type: functional
Pseudomonas aeruginosa [13] = assay: Antimicrobial activity against Pseudomonas aeruginosa MTCC 741 by paper disk diffusion method; assay type: functional
Staphylococcus aureus [14] = assay: Antimicrobial activity against Staphylococcus aureus MTCC 96 by agar streak dilution method; assay type: functional
Candida albicans [15] = assay: Antimicrobial activity against Candida albicans MTCC 183 by agar streak dilution method; assay type: functional
Aspergillus fumigatus [16] = assay: Antimicrobial activity against Aspergillus fumigatus MTCC 343 by paper-disk diffusion method; assay type: functional
[17] = tested on: Mycobacterium tuberculosis; assay: Antimicrobial activity against Mycobacterium tuberculosis H37Rv by Lowenstein and Jensen method; assay type: functional; conditions: for MIC: Mycobacterium tuberculosis, H37Rv
Escherichia coli [18] = assay: Antimicrobial activity against Escherichia coli MTCC 739 by paper disk diffusion method; assay type: functional
Salmonella typhi [19] = assay: Antimicrobial activity against Salmonella enterica subsp. enterica serovar Typhi MTCC 733 by paper disk diffusion method; assay type: functional
[20] = tested on: Mycobacterium tuberculosis; assay: Antimicrobial activity against Mycobacterium tuberculosis H37Rv at 100 ug/ml by BACTEC MGIT method; assay type: functional, organism-based
Staphylococcus aureus [21] = assay: Antimicrobial activity against Staphylococcus aureus MTCC 96 by paper-disk diffusion method; assay type: functional
Aspergillus clavatus [22] = assay: Antimicrobial activity against Aspergillus clavatus MTCC 1323 by agar streak dilution method; assay type: functional
[23] = tested on: Mycobacterium tuberculosis; assay: Antimicrobial activity against Mycobacterium tuberculosis H37Rv by BACTEC MGIT method; assay type: functional; conditions: Mycobacterium tuberculosis, H37Rv
Aspergillus clavatus [24] = assay: Antimicrobial activity against Aspergillus clavatus MTCC 1323 by paper disk diffusion method; assay type: functional
Aspergillus fumigatus [25] = assay: Antimicrobial activity against Aspergillus fumigatus MTCC 343 at 100 ug/ml by paper-disk diffusion method; assay type: functional, organism-based
Escherichia coli [26] = assay: Antimicrobial activity against Escherichia coli MTCC 739 at 100 ug/ml by paper-disk diffusion method; assay type: functional, organism-based
Klebsiella pneumoniae [27] = assay: Antimicrobial activity against Klebsiella pneumoniae MTCC 109 by agar streak dilution method; assay type: functional
Klebsiella pneumoniae [28] = assay: Antimicrobial activity against Klebsiella pneumoniae MTCC 109 by paper disk diffusion method; assay type: functional
Aspergillus clavatus [29] = assay: Antimicrobial activity against Aspergillus clavatus MTCC 1323 at 100 ug/ml by paper disk diffusion method; assay type: functional, organism-based

SMILES	MIC (Bacillus cereus [1]) [µg/mL]	MIC (Proteus vulgaris [3]) [µg/mL]	MIC (Aspergillus niger [4]) [µg/mL]	inhibition zone (IZ) (Shigella flexneri)	MIC (Escherichia coli [5]) [µg/mL]	MIC (Pseudomonas aeruginosa [6]) [µg/mL]	inhibition zone (IZ) (Aspergillus niger [7]) [mm]	inhibition zone (IZ) (Candida albicans [8]) [mm]	MIC (Salmonella typhi [9]) [µg/mL]	inhibition zone (IZ) (Proteus vulgaris [10]) [mm]	inhibition zone (IZ) (Bacillus cereus [11]) [mm]	inhibition zone (IZ) (Pseudomonas aeruginosa [13]) [mm]	MIC (Staphylococcus aureus [14]) [µg/mL]	MIC (Candida albicans [15]) [µg/mL]	inhibition (percent inhibition) [17] [%]	MIC [17] [µg/mL]	inhibition zone (IZ) (Salmonella typhi [19]) [mm]	inhibition [20]	inhibition zone (IZ) (Staphylococcus aureus [21]) [mm]	MIC [23] [µg/mL]	also measured
N#Cc1ccc(Nc2nc(Oc3ncnc4ccccc34)nc(N3CCN(C(c4ccccc4)c4ccccc4)CC3)n2)cc1C(F)(F)F	100 (≈ 152 µM)	100 (≈ 152 µM)	100 (≈ 152 µM)	inactive	100 (≈ 152 µM)	50 (≈ 75.8 µM)	21	21	100 (≈ 152 µM)	21	24	22	25 (≈ 37.9 µM)	100 (≈ 152 µM)	97	62.5 (≈ 94.7 µM)	23	inactive	25	> 6.25	inhibition zone (IZ) (Klebsiella pneumoniae [2]): inactive; MIC (Aspergillus fumigatus [12]): 100 µg/mL (≈ 152 µM); inhibition zone (IZ) (Aspergillus fumigatus [16]): 23 mm; inhibition zone (IZ) (Escherichia coli [18]): 23 mm; MIC (Aspergillus clavatus [22]): 100 µg/mL (≈ 152 µM); inhibition zone (IZ) (Aspergillus clavatus [24]): 21 mm
N#Cc1ccc(Nc2nc(Oc3ncnc4ccccc34)nc(N3CCN(c4ccccn4)CC3)n2)cc1C(F)(F)F	25 (≈ 43.8 µM)	100 (≈ 175 µM)	100 (≈ 175 µM)	inactive	–	100 (≈ 175 µM)	21	21	100 (≈ 175 µM)	21	24	21	50 (≈ 87.6 µM)	100 (≈ 175 µM)	96	200 (≈ 351 µM)	21	inactive	22	> 6.25	inhibition zone (IZ) (Klebsiella pneumoniae [2]): inactive; inhibition zone (IZ) (Aspergillus fumigatus [25]): inactive; inhibition zone (IZ) (Escherichia coli [26]): inactive; MIC (Aspergillus clavatus [22]): 100 µg/mL (≈ 175 µM); inhibition zone (IZ) (Aspergillus clavatus [24]): 20 mm
N#Cc1ccc(Nc2nc(Oc3ncnc4ccccc34)nc(N3CCC(Cc4ccccc4)CC3)n2)cc1C(F)(F)F	100 (≈ 172 µM)	25 (≈ 42.9 µM)	100 (≈ 172 µM)	inactive	100 (≈ 172 µM)	100 (≈ 172 µM)	21	22	100 (≈ 172 µM)	23	23	19	100 (≈ 172 µM)	100 (≈ 172 µM)	94	500 (≈ 858 µM)	22	inactive	23	> 6.25	MIC (Klebsiella pneumoniae [27]): 100 µg/mL (≈ 172 µM); inhibition zone (IZ) (Klebsiella pneumoniae [28]): 23 mm; MIC (Aspergillus fumigatus [12]): 100 µg/mL (≈ 172 µM); inhibition zone (IZ) (Aspergillus fumigatus [16]): 21 mm; inhibition zone (IZ) (Escherichia coli [18]): 21 mm; MIC (Aspergillus clavatus [22]): 100 µg/mL (≈ 172 µM); inhibition zone (IZ) (Aspergillus clavatus [24]): 20 mm
N#Cc1ccc(Nc2nc(Oc3ncnc4ccccc34)nc(N3CCN(c4ncccn4)CC3)n2)cc1C(F)(F)F	50 (≈ 87.5 µM)	100 (≈ 175 µM)	100 (≈ 175 µM)	inactive	100 (≈ 175 µM)	50 (≈ 87.5 µM)	22	22	50 (≈ 87.5 µM)	21	25	22	25 (≈ 43.7 µM)	100 (≈ 175 µM)	96	200 (≈ 350 µM)	22	inactive	23	> 6.25	MIC (Klebsiella pneumoniae [27]): 100 µg/mL (≈ 175 µM); inhibition zone (IZ) (Aspergillus fumigatus [25]): inactive; inhibition zone (IZ) (Klebsiella pneumoniae [28]): 20 mm; inhibition zone (IZ) (Escherichia coli [18]): 23 mm; inhibition zone (IZ) (Aspergillus clavatus [29]): inactive

From ChEMBL document CHEMBL3044572, “Discovery of 2-(4-cyano-3-trifluoromethylphenyl amino)-4-(4-quinazolinyloxy)-6-piperazinyl(piperidinyl)-s-triazines as potential antibacterial agents” (2012)
